Laboratory results published in ChEMBL document CHEMBL5291721, “A preclinical secondary pharmacology resource illuminates target-adverse drug reaction associations of marketed drugs” (Nat Commun, 2023).
Values joined by “and” are separate entries in the source; they are usually repeats but may differ in a detail not shown here. Equal values may be shown once.

Tests used:
[1] = target: Vascular endothelial growth factor receptor 2 (Homo sapiens, UniProt P35968); assay type: functional
[2] = target: T1, Alpha-2A adrenergic receptor (Homo sapiens, UniProt P08913); assay type: functional, cell-based
T1 sequence (P08913 whole entry): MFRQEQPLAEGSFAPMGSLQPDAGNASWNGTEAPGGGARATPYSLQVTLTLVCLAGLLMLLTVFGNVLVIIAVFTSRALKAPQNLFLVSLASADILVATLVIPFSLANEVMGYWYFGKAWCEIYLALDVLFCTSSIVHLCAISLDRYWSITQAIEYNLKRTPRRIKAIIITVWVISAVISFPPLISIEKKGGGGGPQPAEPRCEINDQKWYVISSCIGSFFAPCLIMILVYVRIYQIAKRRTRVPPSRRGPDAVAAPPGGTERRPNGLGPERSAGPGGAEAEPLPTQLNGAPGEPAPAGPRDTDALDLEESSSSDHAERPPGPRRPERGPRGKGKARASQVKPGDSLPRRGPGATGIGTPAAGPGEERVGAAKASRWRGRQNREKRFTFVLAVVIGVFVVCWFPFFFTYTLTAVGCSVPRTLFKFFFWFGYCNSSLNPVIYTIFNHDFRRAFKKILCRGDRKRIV

[3] = target: Beta-2 adrenergic receptor (Homo sapiens, UniProt P07550)
[4] = target: T2, Type-1 angiotensin II receptor (Homo sapiens, UniProt P30556)
T2 sequence (P30556 whole entry): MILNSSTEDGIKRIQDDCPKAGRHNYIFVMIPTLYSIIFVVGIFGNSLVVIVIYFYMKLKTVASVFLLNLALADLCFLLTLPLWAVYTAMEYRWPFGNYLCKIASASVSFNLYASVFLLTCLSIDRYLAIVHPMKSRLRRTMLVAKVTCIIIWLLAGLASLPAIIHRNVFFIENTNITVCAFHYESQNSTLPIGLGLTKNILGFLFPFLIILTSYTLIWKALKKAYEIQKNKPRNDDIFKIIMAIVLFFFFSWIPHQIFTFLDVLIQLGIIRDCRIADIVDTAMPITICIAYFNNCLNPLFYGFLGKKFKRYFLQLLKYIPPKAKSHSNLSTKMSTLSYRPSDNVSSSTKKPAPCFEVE

[5] = target: Voltage-dependent L-type calcium channel subunit alpha-1C (Rattus norvegicus, UniProt P22002); assay type: functional
[6] = target: T3, Cholecystokinin receptor type A (Homo sapiens, UniProt P32238)
T3 sequence (P32238 whole entry): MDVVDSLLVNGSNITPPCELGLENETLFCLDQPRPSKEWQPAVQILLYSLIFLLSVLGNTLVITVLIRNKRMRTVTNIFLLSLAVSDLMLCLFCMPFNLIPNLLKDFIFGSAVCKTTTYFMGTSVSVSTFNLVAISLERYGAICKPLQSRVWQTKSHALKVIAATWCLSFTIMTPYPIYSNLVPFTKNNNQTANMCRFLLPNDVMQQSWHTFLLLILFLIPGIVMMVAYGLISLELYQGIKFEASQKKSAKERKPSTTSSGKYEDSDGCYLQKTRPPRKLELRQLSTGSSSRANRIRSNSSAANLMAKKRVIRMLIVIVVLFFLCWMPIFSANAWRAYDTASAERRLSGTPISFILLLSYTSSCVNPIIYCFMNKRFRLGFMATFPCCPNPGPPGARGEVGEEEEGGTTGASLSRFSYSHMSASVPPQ

[7] = target: T4, Endothelin-1 receptor (Homo sapiens, UniProt P25101)
T4 sequence (P25101 whole entry): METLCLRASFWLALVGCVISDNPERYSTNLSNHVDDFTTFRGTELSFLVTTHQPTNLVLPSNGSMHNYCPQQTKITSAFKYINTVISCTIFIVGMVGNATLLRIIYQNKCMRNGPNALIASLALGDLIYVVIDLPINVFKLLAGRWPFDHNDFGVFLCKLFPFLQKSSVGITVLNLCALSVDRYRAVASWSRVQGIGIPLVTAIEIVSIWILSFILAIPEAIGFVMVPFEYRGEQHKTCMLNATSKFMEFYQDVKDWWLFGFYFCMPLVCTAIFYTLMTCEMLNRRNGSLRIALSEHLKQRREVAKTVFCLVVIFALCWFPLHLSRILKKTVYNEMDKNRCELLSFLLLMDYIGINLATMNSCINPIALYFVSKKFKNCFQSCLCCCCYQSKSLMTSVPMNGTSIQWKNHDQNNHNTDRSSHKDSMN

[8] = target: Glutamate receptor ionotropic, NMDA 1 (Rattus norvegicus, UniProt P35439)
[9] = target: Histamine H2 receptor (Homo sapiens, UniProt P25021); assay type: functional, cell-based
[10] = target: Melanocortin receptor 4 (Homo sapiens, UniProt P32245)
[11] = target: T5, Thromboxane A2 receptor (Homo sapiens, UniProt P21731)
T5 sequence (P21731 whole entry): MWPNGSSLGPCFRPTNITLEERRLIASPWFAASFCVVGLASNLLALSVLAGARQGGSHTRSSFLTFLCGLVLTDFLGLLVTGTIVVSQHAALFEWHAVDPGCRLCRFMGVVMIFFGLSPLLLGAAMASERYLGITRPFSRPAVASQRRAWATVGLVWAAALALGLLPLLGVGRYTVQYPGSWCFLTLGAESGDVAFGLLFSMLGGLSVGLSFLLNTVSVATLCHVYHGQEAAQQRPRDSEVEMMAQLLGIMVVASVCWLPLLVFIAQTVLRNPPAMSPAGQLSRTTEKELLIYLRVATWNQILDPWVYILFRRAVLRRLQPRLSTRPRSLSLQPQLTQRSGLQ

[12] = target: Sodium-dependent noradrenaline transporter (Homo sapiens, UniProt P23975)
[13] = target: D(3) dopamine receptor (Homo sapiens, UniProt P35462)
Also: assay procedure not described here.

Histamine H2 receptor, sequence (P25021 whole entry): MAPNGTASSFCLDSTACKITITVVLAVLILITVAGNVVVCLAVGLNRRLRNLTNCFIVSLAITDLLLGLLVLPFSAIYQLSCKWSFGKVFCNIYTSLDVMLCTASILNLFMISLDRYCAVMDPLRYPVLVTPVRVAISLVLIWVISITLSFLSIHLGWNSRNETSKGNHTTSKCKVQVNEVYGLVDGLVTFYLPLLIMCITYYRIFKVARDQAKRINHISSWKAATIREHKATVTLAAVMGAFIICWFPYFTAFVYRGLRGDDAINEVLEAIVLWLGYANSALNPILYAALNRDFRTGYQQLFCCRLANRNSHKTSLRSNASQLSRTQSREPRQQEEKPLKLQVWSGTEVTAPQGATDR
Melanocortin receptor 4, sequence (P32245 whole entry): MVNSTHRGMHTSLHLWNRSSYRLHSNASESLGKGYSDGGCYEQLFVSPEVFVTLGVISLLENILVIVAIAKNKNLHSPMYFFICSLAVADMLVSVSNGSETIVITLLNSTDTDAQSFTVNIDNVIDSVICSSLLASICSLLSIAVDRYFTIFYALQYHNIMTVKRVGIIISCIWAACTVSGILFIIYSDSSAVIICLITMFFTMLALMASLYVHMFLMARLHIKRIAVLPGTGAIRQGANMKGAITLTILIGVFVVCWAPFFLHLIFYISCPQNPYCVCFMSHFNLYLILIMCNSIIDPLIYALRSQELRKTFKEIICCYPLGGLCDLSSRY
Vascular endothelial growth factor receptor 2, sequence (P35968 whole entry): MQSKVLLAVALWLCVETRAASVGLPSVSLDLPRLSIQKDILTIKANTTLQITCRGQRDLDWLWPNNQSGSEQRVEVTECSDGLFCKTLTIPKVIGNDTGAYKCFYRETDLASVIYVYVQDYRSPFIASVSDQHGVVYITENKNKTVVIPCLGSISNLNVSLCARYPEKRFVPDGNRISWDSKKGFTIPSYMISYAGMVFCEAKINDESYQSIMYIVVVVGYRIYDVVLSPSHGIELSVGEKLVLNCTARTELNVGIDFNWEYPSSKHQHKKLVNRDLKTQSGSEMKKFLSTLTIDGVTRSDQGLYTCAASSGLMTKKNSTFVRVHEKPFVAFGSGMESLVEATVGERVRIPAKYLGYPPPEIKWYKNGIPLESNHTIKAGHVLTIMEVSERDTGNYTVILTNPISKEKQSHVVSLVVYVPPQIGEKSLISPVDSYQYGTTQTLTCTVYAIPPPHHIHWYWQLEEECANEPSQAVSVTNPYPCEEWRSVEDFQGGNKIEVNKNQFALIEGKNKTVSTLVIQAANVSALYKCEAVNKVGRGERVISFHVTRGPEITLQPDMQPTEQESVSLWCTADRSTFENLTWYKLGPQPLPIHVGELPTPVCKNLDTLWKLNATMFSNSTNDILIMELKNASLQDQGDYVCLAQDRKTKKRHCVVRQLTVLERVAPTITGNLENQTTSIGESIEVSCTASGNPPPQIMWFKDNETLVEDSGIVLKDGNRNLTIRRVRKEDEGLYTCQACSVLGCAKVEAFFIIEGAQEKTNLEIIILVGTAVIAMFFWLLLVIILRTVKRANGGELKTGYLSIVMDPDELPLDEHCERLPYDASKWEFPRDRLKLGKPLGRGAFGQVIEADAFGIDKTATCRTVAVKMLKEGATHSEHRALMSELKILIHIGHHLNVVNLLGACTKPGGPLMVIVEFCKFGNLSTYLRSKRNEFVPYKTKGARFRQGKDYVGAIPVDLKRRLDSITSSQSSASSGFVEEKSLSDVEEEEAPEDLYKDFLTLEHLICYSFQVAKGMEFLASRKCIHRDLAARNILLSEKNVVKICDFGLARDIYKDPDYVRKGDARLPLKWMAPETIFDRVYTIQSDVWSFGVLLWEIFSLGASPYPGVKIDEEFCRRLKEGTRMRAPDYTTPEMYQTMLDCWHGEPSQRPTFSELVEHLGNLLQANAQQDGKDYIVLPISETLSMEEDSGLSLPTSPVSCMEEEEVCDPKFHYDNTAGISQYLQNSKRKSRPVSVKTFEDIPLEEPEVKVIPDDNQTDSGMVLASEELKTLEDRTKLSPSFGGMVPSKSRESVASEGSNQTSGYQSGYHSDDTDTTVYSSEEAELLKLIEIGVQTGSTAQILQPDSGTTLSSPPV
Beta-2 adrenergic receptor, sequence (P07550 whole entry): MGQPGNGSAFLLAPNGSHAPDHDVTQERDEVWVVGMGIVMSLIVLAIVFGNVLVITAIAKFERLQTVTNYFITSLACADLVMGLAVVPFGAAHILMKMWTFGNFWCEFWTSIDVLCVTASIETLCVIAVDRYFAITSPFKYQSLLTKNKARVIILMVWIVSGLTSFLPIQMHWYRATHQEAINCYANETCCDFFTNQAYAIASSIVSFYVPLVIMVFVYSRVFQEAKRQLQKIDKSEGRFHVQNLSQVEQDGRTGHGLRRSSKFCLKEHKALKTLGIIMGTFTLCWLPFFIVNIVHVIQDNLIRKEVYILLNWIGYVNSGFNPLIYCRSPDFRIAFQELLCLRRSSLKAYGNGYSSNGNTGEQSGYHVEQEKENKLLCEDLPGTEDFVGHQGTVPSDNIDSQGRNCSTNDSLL
D(3) dopamine receptor, sequence (P35462 whole entry): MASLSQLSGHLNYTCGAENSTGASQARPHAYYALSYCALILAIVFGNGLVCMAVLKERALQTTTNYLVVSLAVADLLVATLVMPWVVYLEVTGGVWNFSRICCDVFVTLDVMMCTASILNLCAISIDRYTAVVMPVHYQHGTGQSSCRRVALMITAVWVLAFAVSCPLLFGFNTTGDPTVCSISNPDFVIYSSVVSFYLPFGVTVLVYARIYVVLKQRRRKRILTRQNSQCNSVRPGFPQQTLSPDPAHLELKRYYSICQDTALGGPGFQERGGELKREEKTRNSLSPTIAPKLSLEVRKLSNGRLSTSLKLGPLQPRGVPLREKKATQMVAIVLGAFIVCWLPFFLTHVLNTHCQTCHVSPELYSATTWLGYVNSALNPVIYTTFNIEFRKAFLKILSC
Sodium-dependent noradrenaline transporter, sequence (P23975 whole entry): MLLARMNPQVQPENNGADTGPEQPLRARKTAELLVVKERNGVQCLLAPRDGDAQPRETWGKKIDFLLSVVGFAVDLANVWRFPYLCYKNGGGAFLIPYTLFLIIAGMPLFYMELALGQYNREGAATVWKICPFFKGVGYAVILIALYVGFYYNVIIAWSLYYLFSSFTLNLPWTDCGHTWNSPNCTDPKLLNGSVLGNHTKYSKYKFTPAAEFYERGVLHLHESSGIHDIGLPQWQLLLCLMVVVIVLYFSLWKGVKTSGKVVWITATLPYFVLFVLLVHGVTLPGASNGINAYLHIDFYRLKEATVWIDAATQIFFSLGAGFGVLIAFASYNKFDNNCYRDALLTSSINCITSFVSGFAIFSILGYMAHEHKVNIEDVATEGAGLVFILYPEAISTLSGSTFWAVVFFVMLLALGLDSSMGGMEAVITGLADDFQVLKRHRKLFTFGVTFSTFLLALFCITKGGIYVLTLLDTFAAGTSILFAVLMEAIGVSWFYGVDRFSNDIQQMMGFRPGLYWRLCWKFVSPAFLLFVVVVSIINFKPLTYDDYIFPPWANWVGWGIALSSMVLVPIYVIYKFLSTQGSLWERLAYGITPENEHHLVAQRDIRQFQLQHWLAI

| SMILES | AC50 [1] [µM] | other results |
| --- | --- | --- |
| O=C(O)COc1ccc(C(=O)c2cccs2)c(Cl)c1Cl | > 30 |  |
| COc1c2ccoc2cc2oc(=O)ccc12 [BERGAPTEN] | > 30 |  |
| CNC(=O)Oc1cccc2ccccc12 [CARBARIL] | > 30 |  |
| CC[C@H](C)C[C@H](C)CCCCCCCCC(=O)N[C@H]1C[C@@H](O)[C@@H](NCCN)NC(=O)[C@@H]2[C@@H](O)CCN2C(=O)[C@H]([C@H](O)CCN)NC(=O)[C@H]([C@H](O)[C@@H](O)c2ccc(O)cc2)NC(=O)[C@@H]2C[C@@H](O)CN2C(=O)[C@H]([C@@H](C)O)NC1=O [CASPOFUNGIN] | > 10 |  |
| C/C=C/C/C=C/CCC(=O)[C@H]1O[C@H]1C(N)=O [CERULENIN] | > 30 |  |
| CN(C)[C@@H]1C(O)=C(C(N)=O)C(=O)[C@@]2(O)C(O)=C3C(=O)c4c(O)ccc(Cl)c4[C@@](C)(O)[C@H]3C[C@@H]12 [CHLORTETRACYCLINE] | > 30 |  |
| N[C@@H](CS)C(=O)O [CYSTEINE] | > 30 |  |
| C[C@H]1O[C@@H](n2cc(F)c(=O)[nH]c2=O)[C@H](O)[C@@H]1O [DOXIFLURIDINE] | > 30 |  |
| OC[C@H]1O[C@@H](c2ccc(Cl)c(Cc3ccc(O[C@H]4CCOC4)cc3)c2)[C@H](O)[C@@H](O)[C@@H]1O [EMPAGLIFLOZIN] | > 30 |  |
| CC(C)(O)CNc1nc(Nc2ccnc(C(F)(F)F)c2)nc(-c2cccc(C(F)(F)F)n2)n1 [ENASIDENIB] | 20.5 |  |
| CC[C@H](c1ccc(O)cc1)[C@@H](CC)c1ccc(O)cc1 [HEXESTROL] | > 30 |  |
| CC(C)Cc1ccc(C(C)C(=O)O)cc1 (stereo unspecified) [IBUPROFEN] | > 30 | AC50 [2]: > 10 µM; AC50 [3]: > 10 µM; AC50 [4]: > 30 µM; AC50 [5]: > 10 µM; AC50 [6]: > 30 µM; AC50 [7]: > 30 µM; AC50 [8]: > 10 µM; AC50 [9]: > 10 µM; AC50 [10]: > 30 µM; AC50 [11]: > 30 µM; AC50 [12]: > 30 µM; AC50 [13]: > 30 µM |
| O=C1/C(=C2\Nc3ccc(S(=O)(=O)O)cc3C2=O)Nc2ccc(S(=O)(=O)O)cc21 [INDIGOTINDISULFONATE] | 3.05 |  |
| CC(C)C[C@H](NC(=O)CNC(=O)c1cc(Cl)ccc1Cl)B(O)O [IXAZOMIB] | > 30 |  |
| CC(CCc1ccccc1)NCC(O)c1ccc(O)c(C(N)=O)c1 (stereo unspecified) [LABETALOL] | > 30 |  |
| C=CCN1CC[C@]23CCCC[C@H]2[C@H]1Cc1ccc(O)cc13 [LEVALLORPHAN] | > 30 |  |
| C[N+](C)(C)C[C@H](O)CC(=O)[O-] [LEVOCARNITINE] | > 30 |  |
| CN1CCCCC1CCN1c2ccccc2Sc2ccc([S+](C)[O-])cc21 (stereo unspecified) [MESORIDAZINE] | > 30 |  |
| C[C@@H]1C[C@H]2[C@@H]3CCC4=CC(=O)C=C[C@]4(C)[C@@]3(Cl)[C@@H](O)C[C@]2(C)[C@@]1(OC(=O)c1ccco1)C(=O)CCl [MOMETASONE FUROATE] | > 30 |  |

| SMILES | AC50 [1] [µM] | other results |
| --- | --- | --- |
| Cc1ccccc1C(=O)Nc1ccc(C(=O)N2CCCC(N(C)C)c3ccccc32)cc1 (stereo unspecified) [MOZAVAPTAN] | > 30 |  |
| O=C(O)c1cc(/N=N/c2ccc(O)c(C(=O)O)c2)ccc1O [OLSALAZINE] | 12.3 |  |
| CCOC(=O)C1=C[C@@H](OC(CC)CC)[C@H](NC(C)=O)[C@@H](N)C1 [OSELTAMIVIR] | > 30 |  |
| Cc1onc(-c2ccccc2)c1C(=O)N[C@@H]1C(=O)N2[C@@H]1SC(C)(C)[C@@H]2C(=O)O [OXACILLIN] | > 30 |  |
| CCn1cc(C(=O)O)c(=O)c2cc3c(cc21)OCO3 [OXOLINIC ACID] | > 30 |  |
| FC(F)(F)c1ccc(CNc2ccc(Cc3c[nH]c4ncc(Cl)cc34)cn2)cn1 [PEXIDARTINIB] | 0.131 |  |
| Nc1ccc(C(=O)Oc2ccccc2)c(O)c1 [PHENYL AMINOSALICYLATE] | 23.2 |  |
| CN1CCC(=C2c3ccccc3Sc3ccccc32)CC1 [PIMETHIXENE] | > 30 |  |
| [H]/N=C(\N/C(=N/[H])Nc1ccc(Cl)cc1)NC(C)C [PROGUANIL] | > 30 |  |
| CC(CN1CC(=O)NC(=O)C1)N1CC(=O)NC(=O)C1 (stereo unspecified) [RAZOXANE] | > 30 |  |
| N[C@@H](CO)C(=O)O [SERINE] | > 30 |  |
| C=CC[C@@H]1/C=C(\C)C[C@H](C)C[C@H](OC)[C@H]2O[C@@](O)(C(=O)C(=O)N3CCCC[C@H]3C(=O)O[C@H](/C(C)=C/[C@@H]3CC[C@@H](O)[C@H](OC)C3)[C@H](C)[C@@H](O)CC1=O)[C@H](C)C[C@@H]2OC [TACROLIMUS ANHYDROUS] |  | AC50 [2]: 7.2 µM and > 10 µM; AC50 [3]: > 10 µM; AC50 [4]: > 30 µM; AC50 [5]: > 10 µM; AC50 [6]: > 30 µM; AC50 [7]: > 30 µM; AC50 [8]: > 10 µM; AC50 [9]: > 10 µM; AC50 [10]: > 30 µM; AC50 [11]: 15.3 µM; AC50 [12]: > 30 µM; AC50 [13]: > 30 µM |
| CC(C)OC(=O)CCC/C=C\C[C@@H]1[C@@H](/C=C/C(F)(F)COc2ccccc2)[C@H](O)C[C@@H]1O [TAFLUPROST] | > 10 |  |
| C[C@]1(Cn2ccnn2)[C@H](C(=O)O)N2C(=O)C[C@H]2S1(=O)=O [TAZOBACTAM] | > 30 |  |
| CC[C@H]1OC(=O)[C@H](C)C(=O)[C@H](C)[C@@H](O[C@@H]2O[C@H](C)C[C@H](N(C)C)[C@H]2O)[C@](C)(OC)C[C@@H](C)C(=O)[C@H](C)[C@H]2N(CCCCn3cnc(-c4cccnc4)c3)C(=O)O[C@]12C [TELITHROMYCIN] | > 30 |  |
| CC1=C(/C=C/C(C)=C/C=C/C(C)=C/C(=O)O)C(C)(C)CCC1 [TRETINOIN] | > 30 |  |
| CC(=O)Oc1cc(C(F)(F)F)ccc1C(=O)O [TRIFLUSAL] | > 30 |  |
| Cc1onc(-c2ccccc2)c1-c1ccc(S(N)(=O)=O)cc1 [VALDECOXIB] | > 30 | AC50 [2]: > 10 µM; AC50 [3]: 21.1 µM; AC50 [4]: > 30 µM; AC50 [5]: > 10 µM; AC50 [6]: > 30 µM; AC50 [7]: > 30 µM; AC50 [8]: > 10 µM; AC50 [9]: > 10 µM; AC50 [10]: > 30 µM; AC50 [11]: > 30 µM; AC50 [13]: > 30 µM |
